Data from PubChem BioAssay (NCI).
Where “and” joins values, the source holds several entries; their conditions need not be identical. Equal values may be shown once.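 Assay format: 96-well plates, 48-hour exposure. GI50 marks 50% less growth. TGI denotes the concentration required for complete inhibition of growth.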

How the values were obtained:
Assay in all cases: NCI-60 cell line screen, 48 h
A498 renal = test system: A498 renal
HOP-62 NSCLC = test system: HOP-62 NSCLC
HOP-92 NSCLC = test system: HOP-92 NSCLC
HT29 colon = test system: HT29 colon
LOX IMVI melanoma = test system: LOX IMVI melanoma
M14 melanoma = test system: M14 melanoma
NCI/ADR-RES ovarian = test system: NCI/ADR-RES ovarian
SF-268 CNS = test system: SF-268 CNS
SNB-75 CNS = test system: SNB-75 CNS
UO-31 renal = test system: UO-31 renal

SMILES	TGI (A498 renal)	TGI (HOP-62 NSCLC)	TGI (HOP-92 NSCLC)	TGI (HT29 colon)	TGI (LOX IMVI melanoma)	TGI (M14 melanoma)	TGI (NCI/ADR-RES ovarian)	TGI (SF-268 CNS)	GI50 (SNB-75 CNS) [µM]	TGI (SNB-75 CNS)	TGI (UO-31 renal)	GI50 (A498 renal)	GI50 (HOP-62 NSCLC)	GI50 (HOP-92 NSCLC)	GI50 (HT29 colon)	GI50 (LOX IMVI melanoma)	GI50 (M14 melanoma)	GI50 (NCI/ADR-RES ovarian)	GI50 (SF-268 CNS)	GI50 (UO-31 renal)
Nc1nc(N)c2c(n1)CCC(S(=O)(=O)c1ccc3ccccc3c1)C2 (configuration not stated)	40 µM	> 100 µM	> 72.2 µM	> 51.2 µM	> 100 µM	61 µM	> 100 µM	> 100 µM	12.2	> 100 µM	> 75.3 µM									
CC#CC#C/C(=C/C=CC(=O)OC)SC	> 100 µM		> 100 µM	> 100 µM	> 100 µM	> 100 µM	> 100 µM	> 100 µM		> 100 µM										
C=CC(=O)N1CCC[C@@H](n2nc(-c3ccc(Oc4ccccc4)cc3)c3c(N)ncnc32)C1	> 5.51 µM	> 10 µM	> 8.69 µM	> 10 µM	> 10 µM	> 10 µM	> 10 µM	> 10 µM	> 5.6	> 10 µM	> 10 µM	0.46 µM	> 10 µM	2.67 µM	> 7.23 µM	> 5.39 µM	> 7.36 µM	> 6.08 µM	> 4.98 µM	1.1 µM
COc1ccc(/C=C/C(=O)/C=C(O)/C=C/c2ccc(OC)c(OC)c2)cc1OC		49.2 µM	98.4 µM	22.3 µM	17.9 µM	27.7 µM	> 100 µM	> 100 µM	16.5	69 µM	> 100 µM		9.23 µM	14.1 µM	3.64 µM	2.54 µM	5.88 µM	3.86 µM	4.77 µM	5.27 µM
CCCCCCCCCC[C@H](O)[C@H]1CC[C@@H]([C@@H](O)CC[C@H](O)[C@@H]2CCC(CCCCCCC[C@@H](O)CC3=C[C@H](C)OC3=O)O2)O1 (some centres not stated)		3.28 µM and 19.4 µM	4.34 µM and 16 µM	3.5 µM	2.18 µM and 10 µM	2.93 µM and 9.75 µM	4.08 µM and 19.6 µM		9.29	9.56 µM and 28.1 µM	2.13 µM and 10.9 µM		4.55 µM	1.99 µM		0.0764 µM	2.73 µM	2.63 µM	8.17 µM	2.59 µM
O=c1/c(=C\c2ccc(Br)cc2)sc2n1C(c1ccc(Br)cc1)C1=C(N=2)c2ccc3ccccc3c2OCC1 (configuration not stated)	> 100 µM	> 100 µM	> 100 µM	> 100 µM	> 100 µM	> 100 µM	> 100 µM	> 100 µM	> 100	> 100 µM	> 100 µM	> 100 µM	> 100 µM	> 100 µM	> 100 µM	> 100 µM	> 100 µM	> 100 µM	> 100 µM	> 100 µM
Nc1n[nH]c2ccc([C@@H]3Nc4ccc5cn[nH]c5c4[C@H]4C5CCC(C5)[C@@H]34)cc12 (some centres not stated)	0.777 µM	> 70 µM	> 89.4 µM	> 100 µM	> 81.2 µM	> 100 µM	> 24.1 µM	> 100 µM	0.171	3.59 µM	> 100 µM	0.181 µM	0.485 µM	2.14 µM	0.382 µM	0.567 µM	0.317 µM	0.887 µM	2.59 µM	1 µM
O=C(Nc1cccc(-n2cc(-c3ccncc3)c(-c3ccc(Cl)c(O)c3)n2)c1)Nc1ccc(Cl)c(Cl)c1	3.17 µM	17.6 µM	1.91 µM	> 32.5 µM	3.57 µM	6.97 µM	> 32.5 µM	10.9 µM	1.09	12.2 µM	> 32.5 µM	0.94 µM	2.08 µM	0.679 µM	4.89 µM	0.939 µM	1.18 µM	2.74 µM	1.49 µM	1.25 µM
c1ccc(CC(Nc2cccnc2)c2ccccc2)cc1 (configuration not stated)	> 100 µM	60.1 µM	35.9 µM	32.6 µM	31.9 µM	37.9 µM	68.2 µM	> 100 µM		60.1 µM	45 µM									
CC1[C@@H]2CC=C3[C@H]4CCC5Cc6nc7c(nc6C[C@@]5(C)C4CC(=O)[C@]32CO[C@]12OC(C)(C)CC2O)CC1CC[C@@H]2C3=C[C@H]4O[C@@]5(O[C@@](C)(CO)C[C@@H]5O)C(C)[C@@]4(O)[C@]3(C)[C@@H](O)CC2[C@]1(C)C7 (some centres not stated)	0.0187 µM and 0.0124 µM	0.00248 µM and 0.00609 µM		0.0487 µM and 0.027 µM		0.0124 µM	0.561 µM and > 3.65 µM	0.253 µM and 0.441 µM	0.000365			0.000721 µM	0.00024 µM and 0.000365 µM	0.000668 µM and 0.000454 µM	0.00282 µM and 0.00152 µM	0.000361 µM and 0.000576 µM	0.00131 µM		0.0011 µM and 0.00472 µM	
Cc1cnc(-c2ccc(-c3ccc(NC(=O)Nc4c(F)cc(F)cc4F)cc3F)c3c2C(=O)NC3)[nH]1	24.3 µM and 14.9 µM	3.07 µM and 11 µM	6.37 µM and 12.1 µM	2.66 µM and 2.45 µM	4.22 µM and 14.5 µM	1.99 µM and 17.1 µM	> 100 µM	20.6 µM and 22.9 µM	2.96	10.9 µM	> 100 µM	6.48 µM and 2.13 µM		1.31 µM and 2.01 µM	0.431 µM and 0.359 µM	0.0973 µM and 0.386 µM	0.0392 µM and 0.211 µM	> 100 µM	1.17 µM and 3.25 µM	0.594 µM and 1.46 µM
CC(=O)ON=C1C=CC(=C(C#N)c2ccccc2)C=C1	47 µM	9.16 µM	6.99 µM	12.9 µM	5.58 µM	9.9 µM	4.21 µM	6.33 µM	2	13.7 µM	15.6 µM	12.6 µM	1.63 µM	1.67 µM	3.03 µM	0.393 µM	1.89 µM	0.768 µM	1.21 µM	0.576 µM
CC(C)C1=CC2=C(C(=O)C1=O)C13CCCC(C)(C)C1CC2OC3=O (configuration not stated)	52.2 µM		37.3 µM	26.3 µM	39.7 µM	70.6 µM	40.1 µM	55.8 µM		63.8 µM	40.8 µM									
O=C1c2ccc3c4c(ccc(c24)C(=O)N1CCNCc1ccccc1)C(=O)N(CCNCc1ccccc1)C3=O	37.8 µM	4.57 µM	33.2 µM		3.16 µM	3.27 µM	4.94 µM	14.7 µM	3.19	43.1 µM		15.6 µM	1.91 µM	7.66 µM		1.67 µM	1.85 µM	1.81 µM	2.76 µM	
Cc1c(Cl)c(C)c(Cl)c(O)c1Cl	68.7 µM	> 100 µM	58 µM	> 100 µM	> 100 µM	49.1 µM	72.6 µM	> 100 µM		> 100 µM	42.6 µM									
COC(=O)[C@]12CC[C@@H](C)[C@H](C)[C@@H]1C1=CC[C@@H]3[C@@](C)(CC#N)C4=C(C[C@@]3(C)[C@]1(C)CC2)OC[C@]4(C)C=O	28.7 µM	36.6 µM	34.7 µM	41.5 µM	13.3 µM	19.9 µM	38.9 µM	> 100 µM	3.22	> 100 µM	39.5 µM	14.7 µM	5 µM	4.53 µM	5.85 µM	3.11 µM	3.46 µM	4.26 µM	4.38 µM	3.07 µM
CCCCOC(=O)c1c(C)[nH]c(/C=C2\N=C(c3ccc[nH]3)C=C2OC)c1C	2.16 µM	8.04 µM	0.637 µM	1.72 µM	0.102 µM	2.01 µM	2.92 µM	9.07 µM	0.124	0.892 µM	0.337 µM	0.342 µM	0.416 µM	0.163 µM	0.041 µM	0.0296 µM	0.171 µM	0.121 µM	0.242 µM	0.137 µM
CC(=O)Nc1cc2c3c(cccc3c1)-c1ccccc1-2	28.6 µM	69.5 µM	44.8 µM	> 100 µM	> 100 µM	> 100 µM	> 100 µM	> 100 µM	> 100	> 100 µM	15.3 µM	11.6 µM	22.7 µM	17.8 µM	> 100 µM	38.9 µM	> 100 µM	26.1 µM	8.94 µM	0.356 µM
Nc1c(C(=O)Nc2cccc(C(F)(F)F)c2)sc2nc3c(cc12)CCCCCC3	5.51 µM		4.86 µM	32.4 µM	11.2 µM	18 µM	10.9 µM	6.77 µM	1.73	3.47 µM	8.57 µM	1.39 µM		1.7 µM	3.24 µM	3.04 µM	3.4 µM	2.69 µM	2.36 µM	2.18 µM
C=C(Br)COc1ccc2c(C)cc(=O)oc2c1	> 100 µM	> 100 µM	> 100 µM	> 100 µM	> 100 µM	> 100 µM	> 100 µM	> 100 µM			> 100 µM									
CN1CCN(CCC=C2c3ccccc3Sc3ccc(S(=O)(=O)N(C)C)cc32)CC1	13.2 µM and 17 µM	23.3 µM and 33 µM	4.54 µM and 20.3 µM	3.26 µM and 2.91 µM	3.7 µM and 8.66 µM	3.63 µM and 4.57 µM	26.5 µM and 37.5 µM				25.1 µM and 21.1 µM	2.19 µM and 3.51 µM	5.73 µM and 14.6 µM	0.516 µM and 2.84 µM	1.42 µM and 0.872 µM	1.7 µM and 2.79 µM	1.97 µM and 2.1 µM	5.5 µM and 13.2 µM		3.46 µM and 4.23 µM
C[C@]12CC[C@H]3[C@@H](CC[C@]4(O)C[C@@H](O[C@@H]5O[C@H](CO)[C@@H](O[C@@H]6OC[C@@H](O)[C@H](O)[C@H]6O)[C@H](O)[C@H]5O)CC[C@]34C=O)[C@@]1(O)CC[C@@H]2C1=CC(=O)OC1	4.5 µM	3 µM		5.71 µM	5.09 µM	10.5 µM	2.4 µM	2.42 µM	1.15	6.65 µM	5.01 µM	1.23 µM	0.702 µM		1.82 µM	1.46 µM	2.38 µM	0.999 µM	0.739 µM	1.54 µM
NC(=O)c1csc(-c2ccc(CO)o2)n1	> 100 µM		> 100 µM	> 100 µM	> 100 µM	> 100 µM	> 100 µM	> 100 µM			> 100 µM									
CO/C(=C1/NC(=O)C(Cc2ccc(O)c(Br)c2)N(C)C(=O)C(C)NC(=O)CCC/C=C(\C)CCC(C)OC1=O)c1ccccc1 (configuration not stated)	0.0357 µM	1.18 µM	0.0612 µM		0.653 µM		18.1 µM	0.0767 µM			0.0458 µM	0.0174 µM	0.0369 µM	0.0246 µM	< 0.0135 µM	0.0159 µM	< 0.0205 µM	0.0566 µM	0.0267 µM	0.0192 µM
O=C(O)c1ccc(/C=N/N=C2c3ccccc3-c3ccccc32)cc1	> 100 µM	> 100 µM	> 100 µM	> 100 µM	> 100 µM	> 100 µM	> 100 µM	89.3 µM			> 100 µM									
COc1cc(C2CC(c3cccc(Nc4ccnc5cc(Cl)ccc45)c3)=NN2c2ccccc2)cc(OC)c1OC (configuration not stated)		> 100 µM	> 100 µM		> 100 µM	> 100 µM	> 100 µM	> 100 µM	6.6	> 100 µM	> 100 µM		3.81 µM	3.6 µM		2.3 µM	2.6 µM	5.97 µM	75.5 µM	1.68 µM
Cc1c(C(=O)c2ccccc2)[n+](=O)c2cc(F)c(F)cc2n1[O-]	24.9 µM	3.4 µM	14.7 µM	> 100 µM	3.01 µM	3.36 µM	3.23 µM	4.12 µM			4.13 µM	12.1 µM	1.84 µM	3.72 µM	2.52 µM	1.61 µM	1.81 µM	1.76 µM	1.93 µM	2.04 µM
COc1c(B(O)O)cccc1-c1nc2c(F)cc3n[nH]c(C)c3c2c2c1CCCC2		> 50 µM	2.57 µM	> 50 µM	4.14 µM	8.93 µM	> 50 µM	49.3 µM	0.0152	0.168 µM	3.07 µM		0.303 µM	0.0117 µM	1.95 µM	0.688 µM	2.28 µM	1.48 µM	0.666 µM	0.225 µM
